# Experimental data published in patent publication US11420958B2, “Aryl and heteroaryl substituted indole compounds” (BRISTOL-MYERS SQUIBB COMPANY, priority 2017, dated 2022).
# What was measured:
# Type in all cases: cell-based
# human TLR7 = human TLR7 (Homo sapiens (Human), UniProt Q9NYK1); test: TLR7 inhibition reporter assay (HEK-Blue, SEAP); conditions: HEK-Blue cells overexpressing human TLR7, gardiquimod 7.5 μM stimulation
# Procedure: (§1) TLR7/8/9 Inhibition Reporter Assays
# (§2) HEK-Blue™-cells (Invivogen) overexpressing human TLR7, TLR8 or TLR9 receptors were used for screening inhibitors of these receptors using an inducible SEAP (secreted embryonic alkaline phosphatase) reporter gene under the control of the IFN-β minimal promoter fused to five NF-κc Band AP-1-binding sites. Briefly, cells are seeded into Greiner 384 well plates (15000 cells per well for TLR7, 20,000 for TLR8 and 25,000 for TLR9) and then treated with test compounds in DMSO to yield a final dose response concentration range of 0.05 nM-50 μM. After a 30 minute compound pre-treatment at room temperature, the cells are then stimulated with a TLR7 ligand (gardiquimod at a final concentration of 7.5 μM), TLR8 ligand (R848 at a final concentration of 15.9 μM) or TLR9 ligand (ODN2006 at final concentration of 5 nM) to activate NF-κB and AP-1 which induce the production of SEAP. After a 22 hour incubation at 37° C., 5% CO2, SEAP levels are determined with the addition of HEK-Bue™ Detection reagent (Invivogen), a cell culture medium that allows for detection of SEAP, according to manufacturer's specifications. The percent inhibition is determined as the % reduction in the HEK-Blue signal present in wells treated with agonist plus DMSO alone compared to wells treated with a known inhibitor.
# human TLR8 = human TLR8 (Homo sapiens (Human), UniProt Q9NR97); test: TLR8 inhibition reporter assay (HEK-Blue, SEAP); conditions: HEK-Blue cells overexpressing human TLR8, R848 15.9 μM stimulation
# Sequence of human TLR8 (Q9NR97 27-1041): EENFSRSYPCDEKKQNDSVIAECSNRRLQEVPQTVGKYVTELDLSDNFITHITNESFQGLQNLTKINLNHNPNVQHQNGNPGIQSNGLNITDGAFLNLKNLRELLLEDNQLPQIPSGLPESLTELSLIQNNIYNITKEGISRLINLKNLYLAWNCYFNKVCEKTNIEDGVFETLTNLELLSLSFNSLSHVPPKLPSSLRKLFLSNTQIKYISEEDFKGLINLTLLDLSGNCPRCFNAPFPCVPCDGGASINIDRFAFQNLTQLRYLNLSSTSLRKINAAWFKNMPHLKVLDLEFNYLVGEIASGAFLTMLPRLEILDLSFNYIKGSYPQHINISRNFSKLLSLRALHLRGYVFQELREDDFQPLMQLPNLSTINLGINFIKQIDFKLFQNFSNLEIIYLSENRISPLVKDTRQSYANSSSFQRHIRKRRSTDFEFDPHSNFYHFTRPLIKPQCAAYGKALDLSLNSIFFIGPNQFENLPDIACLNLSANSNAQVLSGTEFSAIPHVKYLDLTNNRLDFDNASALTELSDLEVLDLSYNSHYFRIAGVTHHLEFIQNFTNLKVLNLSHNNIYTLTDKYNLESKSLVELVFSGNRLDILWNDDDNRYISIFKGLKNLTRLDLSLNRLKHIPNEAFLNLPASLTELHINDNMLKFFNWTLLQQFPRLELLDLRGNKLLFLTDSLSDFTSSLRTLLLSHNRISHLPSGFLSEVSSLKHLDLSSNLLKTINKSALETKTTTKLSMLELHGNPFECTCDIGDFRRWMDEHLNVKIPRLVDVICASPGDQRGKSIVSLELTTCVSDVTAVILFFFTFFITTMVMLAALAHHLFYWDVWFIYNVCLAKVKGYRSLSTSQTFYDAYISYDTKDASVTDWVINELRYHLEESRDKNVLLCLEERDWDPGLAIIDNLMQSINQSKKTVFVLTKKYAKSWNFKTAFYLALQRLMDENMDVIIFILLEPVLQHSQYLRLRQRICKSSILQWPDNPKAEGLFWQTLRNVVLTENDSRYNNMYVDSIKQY
# Procedure: as §1, §2
# human TLR9 = human TLR9 (Homo sapiens (Human), UniProt Q9NR96); test: TLR9 inhibition reporter assay (HEK-Blue, SEAP); conditions: HEK-Blue cells overexpressing human TLR9, ODN2006 5 nM stimulation
# Sequence of human TLR9 (Q9NR96 26-1032): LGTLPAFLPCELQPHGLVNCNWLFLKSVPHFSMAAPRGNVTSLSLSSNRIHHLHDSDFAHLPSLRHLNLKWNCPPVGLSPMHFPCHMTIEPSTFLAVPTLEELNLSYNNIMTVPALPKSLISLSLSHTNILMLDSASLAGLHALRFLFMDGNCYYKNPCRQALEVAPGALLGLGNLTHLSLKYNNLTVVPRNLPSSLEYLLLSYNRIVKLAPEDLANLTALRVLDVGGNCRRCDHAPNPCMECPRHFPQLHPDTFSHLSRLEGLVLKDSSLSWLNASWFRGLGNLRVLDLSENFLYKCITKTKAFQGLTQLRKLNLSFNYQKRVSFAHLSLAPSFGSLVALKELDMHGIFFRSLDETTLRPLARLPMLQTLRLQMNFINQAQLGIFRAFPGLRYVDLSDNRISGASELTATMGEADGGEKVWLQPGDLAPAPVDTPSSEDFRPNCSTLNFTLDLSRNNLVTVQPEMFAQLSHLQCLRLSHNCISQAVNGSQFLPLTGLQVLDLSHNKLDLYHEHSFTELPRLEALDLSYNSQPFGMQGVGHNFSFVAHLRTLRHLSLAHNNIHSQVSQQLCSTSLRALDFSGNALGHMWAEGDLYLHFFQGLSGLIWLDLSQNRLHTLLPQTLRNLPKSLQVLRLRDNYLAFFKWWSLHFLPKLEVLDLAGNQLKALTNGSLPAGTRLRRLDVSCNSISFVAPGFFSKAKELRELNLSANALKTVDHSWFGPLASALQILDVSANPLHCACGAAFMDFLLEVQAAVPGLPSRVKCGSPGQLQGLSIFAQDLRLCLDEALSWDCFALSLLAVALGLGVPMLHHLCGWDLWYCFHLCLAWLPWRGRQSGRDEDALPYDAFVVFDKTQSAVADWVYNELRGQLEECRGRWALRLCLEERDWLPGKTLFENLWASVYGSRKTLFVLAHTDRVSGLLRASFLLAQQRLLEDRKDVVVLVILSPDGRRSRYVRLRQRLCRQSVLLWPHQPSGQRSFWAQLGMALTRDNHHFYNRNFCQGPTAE
# Procedure: as §1, §2
# Sequence of human TLR7 (Q9NYK1 27-1049): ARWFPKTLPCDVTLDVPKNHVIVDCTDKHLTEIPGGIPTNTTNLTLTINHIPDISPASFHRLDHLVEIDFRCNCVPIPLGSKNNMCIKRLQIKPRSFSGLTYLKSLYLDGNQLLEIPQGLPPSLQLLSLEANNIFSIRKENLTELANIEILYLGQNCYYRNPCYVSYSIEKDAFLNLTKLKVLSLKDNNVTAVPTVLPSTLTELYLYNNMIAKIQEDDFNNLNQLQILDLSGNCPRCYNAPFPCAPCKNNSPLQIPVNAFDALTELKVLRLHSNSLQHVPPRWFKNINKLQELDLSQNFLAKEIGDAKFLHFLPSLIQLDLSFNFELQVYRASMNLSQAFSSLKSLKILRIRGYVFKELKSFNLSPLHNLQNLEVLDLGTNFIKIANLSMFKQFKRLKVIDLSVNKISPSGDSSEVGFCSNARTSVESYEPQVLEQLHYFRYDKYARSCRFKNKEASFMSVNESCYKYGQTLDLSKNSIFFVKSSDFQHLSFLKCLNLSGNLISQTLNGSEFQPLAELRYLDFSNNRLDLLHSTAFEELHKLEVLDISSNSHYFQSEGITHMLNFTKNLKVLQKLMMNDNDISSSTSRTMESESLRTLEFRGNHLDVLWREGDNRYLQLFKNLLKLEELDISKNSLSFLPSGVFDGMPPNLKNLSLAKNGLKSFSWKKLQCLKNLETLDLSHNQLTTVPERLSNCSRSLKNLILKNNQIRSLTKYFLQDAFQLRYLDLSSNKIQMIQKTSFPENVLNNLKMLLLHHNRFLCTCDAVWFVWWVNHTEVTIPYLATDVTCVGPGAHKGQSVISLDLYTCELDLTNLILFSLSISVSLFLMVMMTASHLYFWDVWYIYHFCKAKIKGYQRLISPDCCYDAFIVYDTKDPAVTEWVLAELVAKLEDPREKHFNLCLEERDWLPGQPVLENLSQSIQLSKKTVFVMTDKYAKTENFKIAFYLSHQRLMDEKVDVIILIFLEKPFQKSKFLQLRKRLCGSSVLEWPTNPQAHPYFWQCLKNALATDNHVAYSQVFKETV
IC50 (human TLR7) [nM],IC50 (human TLR8) [nM],IC50 (human TLR9) [nM],Structure (SMILES)
6.7,4.9,220,"Cc1cc(-c2[nH]c3ccc(-c4ccc(N5CCC(N(C)C)CC5)nc4)cc3c2C(C)C)cc(C)n1 [Example 337, 1-(5-(2-(2,6-dimethylpyridin-4-yl)-3-isopropyl-1H-indol-5-yl)pyridin-2-yl)-N,N-dimethylpiperidin-4-amine]"
50,14,1390,"COc1ccc(-c2[nH]c3ccc(-c4cnc(N5CCNCC5)cc4C)cc3c2C(C)C)cc1OC [Example 419, 2-(3,4-dimethoxyphenyl)-3-isopropyl-5-(4-methyl-6-(piperazin-1-yl)pyridin-3-yl)-1H-indole]"
136,45,4630,"COc1ccc(-c2[nH]c3ccc(-c4ccc(N5CCN[C@H](C)C5)cc4)cc3c2C(C)C)cc1OC [Example 383, (R)-2-(3,4-dimethoxyphenyl)-3-isopropyl-5-(4-(3-methylpiperazin-1-yl)phenyl)-1H-indole]"
274,55,4910,"COc1ccc(-c2[nH]c3ccc(-c4ccc(OC5CCNCC5)cc4)cc3c2C(C)C)cc1OC [Example 410, 2-(3,4-dimethoxyphenyl)-3-isopropyl-5-(4-(piperidin-4-yloxy)phenyl)-1H-indole]"
266,14,12100,"COc1ccc(-c2[nH]c3ccc(-c4nnc(CN(C)C)o4)cc3c2C(C)C)cc1OC [Example 44, 1-(5-(2-(3,4-dimethoxyphenyl)-3-isopropyl-1H-indol-5-yl)-1,3,4-oxadiazol-2-yl)-N,N-dimethylmethanamine]"
348,111,> 50000,"COc1ccc(-c2[nH]c3ccc(-c4nnc(C(=O)N5CCC(O)CC5)o4)cc3c2C(C)C)cc1OC [Example 91, (5-(2-(3,4-dimethoxyphenyl)-3-isopropyl-1H-indol-5-yl)-1,3,4-oxadiazol-2-yl)(4-hydroxypiperidin-1-yl)methanone]"
51,6.9,454,"COc1ccc(-c2[nH]c3ccc(-c4nnc(C(=O)N5CC6CNCC6C5)o4)cc3c2C(C)C)cc1OC (stereo not drawn) [Example 61, (5-(2-(3,4-dimethoxyphenyl)-3-isopropyl-1H-indol-5-yl)-1,3,4-oxadiazol-2-yl)(hexahydropyrrolo[3,4-c]pyrrol-2(1H)-yl)methanone]"
21,6.5,1580,"COc1ccc(-c2[nH]c3ccc(-c4nc(C(=O)N5CC6CNCC6C5)co4)cc3c2C(C)C)cc1OC (stereo not drawn) [Example 127, (2-(2-(3,4-dimethoxyphenyl)-3-isopropyl-1H-indol-5-yl)oxazol-4-yl)(hexahydropyrrolo[3,4-c]pyrrol-2(1H)-yl)methanone]"
34,22,3900,"COc1ccc(-c2[nH]c3ccc(-c4ccc(OC5CCN(C)CC5)cc4)cc3c2C(C)C)cc1OC [Example 387, 2-(3,4-dimethoxyphenyl)-3-isopropyl-5-(4-((1-methylpiperidin-4-yl)oxy)phenyl)-1H-indole]"

# Further lines, the compound ahead of its results:
Structure (SMILES),IC50 (human TLR7) [nM],IC50 (human TLR8) [nM],IC50 (human TLR9) [nM]
"CCc1c(-c2ccc(OC)c(OC)c2)[nH]c2ccc(-c3noc(CCOC)n3)cc12 [Example 451, 3-(2-(3,4-dimethoxyphenyl)-3-ethyl-1H-indol-5-yl)-5-(2-methoxyethyl)-1,2,4-oxadiazole]",3980,1290,> 50000
"CC(C)c1c(-c2ccc3ncnn3c2)[nH]c2ccc(-c3nnc([C@@H]4CCCNC4)o3)cc12 [Example 227, (R)-2-(2-([1,2,4]triazolo[1,5-a]pyridin-6-yl)-3-isopropyl-1H-indol-5-yl)-5-(piperidin-3-yl)-1,3,4-oxadiazole]",61,9.4,892
"Cc1cc(-c2[nH]c3ccc(-c4nnc([C@@H](N)C5CC5)o4)cc3c2C(C)C)ccn1 [Example 268, (S)-cyclopropyl(5-(3-isopropyl-2-(2-methylpyridin-4-yl)-1H-indol-5-yl)-1,3,4-oxadiazol-2-yl)methanamine]",214,2.8,33800
"Cc1cc(-c2[nH]c3ccc(-c4nnc(N)o4)cc3c2C(C)C)ccn1 [Example 174, 5-(3-isopropyl-2-(2-methylpyridin-4-yl)-1H-indol-5-yl)-1,3,4-oxadiazol-2-amine]",53,14,44300
"COc1ccc(-c2[nH]c3ccc(-c4nnc(CCn5ccnc5)o4)cc3c2C(C)C)cc1OC [Example 47, 2-(2-(1H-imidazol-1-yl)ethyl)-5-(2-(3,4-dimethoxyphenyl)-3-isopropyl-1H-indol-5-yl)-1,3,4-oxadiazole]",194,82,19100
"C#CCN(C)Cc1nnc(-c2ccc3[nH]c(-c4ccc(OC)c(OC)c4)c(C(C)C)c3c2)o1 [Example 123, N-((5-(2-(3,4-dimethoxyphenyl)-3-isopropyl-1H-indol-5-yl)-1,3,4-oxadiazol-2-yl)methyl)-N-methylprop-2-yn-1-amine]",703,213,> 50000
"Cc1cc(-c2[nH]c3ccc(-c4ccnc(N)c4)cc3c2C(C)C)ccn1 [Example 200, 4-(3-isopropyl-2-(2-methylpyridin-4-yl)-1H-indol-5-yl)pyridin-2-amine]",9.6,9.7,727
"Cc1cc(-c2[nH]c3ccc(-c4nnc([C@@H]5CCCC[C@@H]5N)o4)cc3c2C(C)C)ccn1 [Example 266, (1S,2R)-2-(5-(3-isopropyl-2-(2-methylpyridin-4-yl)-1H-indol-5-yl)-1,3,4-oxadiazol-2-yl)cyclohexan-1-amine]",38,0.5,781
"Cc1cc(-c2[nH]c3ccc(-c4nnc(C(=O)N5CC6CNCC6C5)o4)cc3c2C(C)C)ccn1 (stereo not drawn) [Example 60, (hexahydropyrrolo[3,4-c]pyrrol-2(1H)-yl)(5-(3-isopropyl-2-(2-methylpyridin-4-yl)-1H-indol-5-yl)-1,3,4-oxadiazol-2-yl)methanone]",194,6,283
"Cc1cc(-c2[nH]c3ccc(-c4nc(C(=O)NCCCN5CCN(C)CC5)co4)cc3c2C(C)C)cc(C)n1 [Example 286, 2-(2-(2,6-dimethylpyridin-4-yl)-3-isopropyl-1H-indol-5-yl)-N-(3-(4-methylpiperazin-1-yl)propyl)oxazole-4-carboxamide]",12,1.9,202
"Cc1cc(-c2[nH]c3ccc(-c4cn5c(n4)CNCC5)cc3c2C(C)C)cc(C)n1 [Example 354, 2-(2-(2,6-dimethylpyridin-4-yl)-3-isopropyl-1H-indol-5-yl)-5,6,7,8-tetrahydroimidazo[1,2-a]pyrazine]",48,2.8,2100
"Cc1cc(-c2[nH]c3ccc(-c4cc5c(s4)CN(C(C)C)CC5)cc3c2C(C)C)cc(C)n1 [Example 325, 2-(2-(2,6-dimethylpyridin-4-yl)-3-isopropyl-1H-indol-5-yl)-6-isopropyl-4,5,6,7-tetrahydrothieno[2,3-c]pyridine]",11,0.5,282
"Cc1cc(-c2[nH]c3ccc(-c4nc(C(=O)NCC5CNC5)co4)cc3c2C(C)C)cc(C)n1 [Example 288, N-(azetidin-3-ylmethyl)-2-(2-(2,6-dimethylpyridin-4-yl)-3-isopropyl-1H-indol-5-yl)oxazole-4-carboxamide]",69,80,730
"Cc1cc(-c2[nH]c3ccc(-c4nnc(C(=O)N5CCC(N)CC5)o4)cc3c2C(C)C)cc(C)n1 [Example 230, (4-aminopiperidin-1-yl)(5-(2-(2,6-dimethylpyridin-4-yl)-3-isopropyl-1H-indol-5-yl)-1,3,4-oxadiazol-2-yl)methanone]",19,9.3,343
"Cc1cc(-c2[nH]c3ccc(-c4ccc(N)nn4)cc3c2C(C)C)ccn1 [Example 360, 6-(3-isopropyl-2-(2-methylpyridin-4-yl)-1H-indol-5-yl)pyridazin-3-amine]",58,16,27000
"CC(C)c1c(-c2ccnc3[nH]ncc23)[nH]c2ccc(-c3nnc([C@@H]4CCCNC4)o3)cc12 [Example 103, (R)-2-(3-isopropyl-2-(1H-pyrazolo[3,4-b]pyridin-4-yl)-1H-indol-5-yl)-5-(piperidin-3-yl)-1,3,4-oxadiazole]",54,5.4,166
"Cc1cc(-c2[nH]c3ccc(-c4ccc(N5CCN(C(C)C)CC5)nc4)cc3c2C(C)C)cc(C)n1 [Example 306, 2-(2,6-dimethylpyridin-4-yl)-3-isopropyl-5-(6-(4-isopropylpiperazin-1-yl)pyridin-3-yl)-1H-indole]",4.8,4.8,289
